In US5852003A, “Drug and pharmaceutical composition for the treatment of muscles” (Societe Valbiofrance, priority 1994, dated 1998):
Entries after “also recorded” stand apart in the source; their conditions may differ. One block for each molecule: values may come before it.

Key:
FGF 1 = assay: potentialization of FGF 1 biological activity, tritiated thymidine incorporation in CCL39 cells; type: cell-based
Excerpt: (§1) The cells used in this example are CCL39 cells from the American Tissue Culture Collection. The conditions concerning culture and the measurement test of FGF biological activity are the same as those described in the publication by Tardieu and coll. in the Journal of Cellular Physiology, 1992. The FGF growth factors used are the FGF 1 and FGF 2 recombinant forms.
(§2) In these experiments, the FGF 1 or 2 is used at a dose corresponding to the effective dose (called ED50) in order to induce a stimulation of the biological activity of 50% of the dose inducing the maximum stimulation. The biological activity is measured by the ability to induce an increase of the incorporation of tritiated thymidine in the cells according to protocols extensively described in numerous publications such as the previously mentioned publication by Tardieu et coll. and also in French Patent 2 644 066. […] In addition to this ability to potentialize the biological activity of the FGFs, the HBGFPPs protect the FGFs against thermal degradations and the inactivation induced by the proteolytic action of trypsin (FIGS. 3 to 5). Similarly, these HBGFPPs protect FGF1 and 2 against an inactivation induced by the proteolytic activity of trypsin (5A and 5B).

coagulation = assay: anticoagulant activity
complement system = assay: anticomplement activity (CH50); conditions: measured according to Mauzac et al.
trypsin = trypsin enzymatic activity on substrate S.87
Procedure: The enzymatic activity of trypsin was measured by spectrophotometric absorption of the transformation product of S 87 in versus of the incubation time.

FGF 2 = assay: potentialization of FGF 2 biological activity, tritiated thymidine incorporation in CCL39 cells; type: cell-based
Excerpt: as §1, §2

beta TGF = molecular target: T1, beta TGF (Homo sapiens, UniProt P01137); assay: protection of beta TGF against degradation by trypsin, beta TGF activity read on CCL64 cells; type: cell-based; conditions: for % inhibiting activity of the incorporation of tritiated thymidine in CCL64 cells: 37° C. 10 min, dilution 50 times
T1 construct: from tissue; host or cells: human blood platelets
T1 sequence (P01137 279-390 limits assumed): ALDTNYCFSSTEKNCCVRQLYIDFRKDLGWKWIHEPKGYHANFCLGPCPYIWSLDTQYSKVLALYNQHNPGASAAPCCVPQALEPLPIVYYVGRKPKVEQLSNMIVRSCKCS
Procedure: In order to measure the capacity of certain CMDBSs to interact with members of the beta TGF family and, by means of this interaction, to protect the beta TGFs, a grading test was devised.
The beta 1 TFG is prepared from human blood platelets according to a protocol described in numerous publications (for example Growth factors and their receptors, 1992, vol 1 pp 419-472, written by A. Roberts and M. Sporn, edited by A. Roberts and M. Sporn, and published by Springer Verlag Berlin) and are commonly used by persons of ordinary skill in the art. The beta TGF biological activity test used in this example is that of the inhibition of CCL64 cells (from the American Tissue Culture Collection). This inhibition is measured by the ability of the beta TGF to inhibit the incorporation of tritiated thymidine in a dose dependent manner in these CCL64 cells stimulated by the FGF or by fetal calf serum according to the protocol described by Van Zolen in Progress in Growth Factor Research, 1990, 2, pp 131 to 152.
Two doses of beta TGF are used, one corresponding to the 50% inhibition capacity of the incorporation of tritiated thymidine (defined as the inhibiting activity unit) and the other corresponding to the 100% inhibition capacity.
The final volume of the incubated solution is adjusted to 1 ml and incubation is carried out at 37° C. for a varying length of time (10 minutes in the example described (Table 1)).
20 μl samples of are taken from each of the incubation reactions and added to CCL64 cells cultivated in 24-well plates, each well containing milliliter of culture medium according to the aforementioned protocol described by E. Zohlen. In these conditions, the final concentration of beta TGF per well is 1 ng/ml.
The incubation mixture contained 50 ng of beta TGF (in 0.1% bovine serum albumin) and trypsin (500 μg). Mesoglycan or sulodexide or dextran sulfate or dextran or sucrase are used at the dose of 5000 μg.
The beta TGF biological activity is measured as described above after a dilution of 50 times and by using CCL64 cells.

FGF1 = assay: protection of FGF1 against thermal degradation, activity on CCL39 cells; type: cell-based; conditions: 20 μg heparin, 10 μg mesoglycan or sulodexide; 20° C. and 37° C. for 1, 7, 15, 30 days
Procedure: (§3) (a) and 37° C. (b) for 1, 7, 15, 30 days. The measurement of the biological activity presented in abscissa corresponds to the stimulation unit values (ED50) of the incorporation of tritiated thymidine in CCL39 cells.
as §2

FGF2 = assay: protection of FGF2 against thermal degradation, activity on CCL39 cells; type: cell-based; conditions: 20 μg heparin, 10 μg mesoglycan or sulodexide; 20° C. and 37° C. for 1, 7, 15, 30 days
Procedure: as §3, §2

125I-FGF1 = assay: protection of 125I-FGF1 against proteolytic degradation by trypsin, gel autoradiography; type: biochemical; conditions: 37° C., FIG. 5A
Procedure: (§4) Proteolytic digestion was carried out at 37° C. and the samples were separated by 18% polyacrylamide gel electrophoresis. The gels are dried and autoradiographed. The first track contains the ^125 I-FGF1 on its own.

125I-FGF2 = assay: protection of 125I-FGF2 against proteolytic degradation by trypsin, gel autoradiography; type: biochemical; conditions: 37° C., FIG. 5B
Procedure: as §4
The arrangement of the tracks is identical to that presented for the ^125 I-FGF1 in FIG. 5A.

FGF = assay: semi-quantitative evaluation of FGF protection against trypsin, densitometry of radio-labelled FGF; type: biochemical; conditions: FGF + trypsin + polymer; radio-labelled FGF found compared to quantity deposited
Procedure: As described above, a constant quantity of radioactive FGF is incubated under various conditions. After autoradiography of the reaction products, the non degraded quantity of radioactive FGF is quantified by densitometry. The values correspond to the percentage of radio-labelled FGF found, compared to the quantity deposited at the start of reaction (Table 5).

leukocytic elastase [1] = assay: inhibition of leukocytic elastase activity; type: biochemical; conditions: 37° C., pH 8, elastase 8.3 nM, 0.10 mM MeO-Suc-Ala-Ala-Pro-Val-pNA
Procedure: The purified leukocytic elastase was obtained by Elastin Products Co (Owenville, Mo., U.S.A.) and the plasmin from SIGMA.
The enzymes under consideration are placed in solution in a 100 mM Tris-HCL buffer, pH 8 for the elastase and pH 7.4 for the plasmin, in the presence of 0.02% sodium azide and 0.01% Triton X100 for the plasmin. The substrate and enzyme concentrations are: 0.10 mM MeO-Suc-Ala-Ala-Pro-Val-pNA (paranitroanilide)for the elastase at 8.3 nM, and 0.20 mM dVal-Leu-dLys-pNA for the plasmin at 77 nM. The IC50 is determined for each of the conditions.
Batch EM5 corresponds to a T10 dextran of […]. The intermediate products of synthesis are identified by the symbols given above with an index number specifying the number of each substitution reaction.

EDL muscles [2] = assay: regeneration of skeletal muscle after deinnervation followed by crushing; type: in vivo, Wistar rats; conditions: for Ratio regenerated/ contralateral intact (muscle weight): 10 μg injected after deinnervation and crushing; for % ratio treated/ ratio degenerated: 10 μg injected, PBS-treated muscle = 100
Procedure: The protocol is exactly the same as that described in Example 4 but the crushing of the muscle is preceded by section of the motor nerve at the entrance of the muscle.
The substances are in saline phosphate buffer solution (PBS).
Injection takes place after deinnervation and crushing , using a 50 μl microsyringe equipped with a flexible needle 60 mm in length and 0.4 mm in diameter. Two injections are carried out at an interval of 2 min. The volume injected is therefore 100 μl. The sucrase […] was supplied free of charge by D. Bar Shalom Bulk Medic, Denmark.
After sacrifice of the animal, the EDL muscles of the treated paw and the contralateral paw are weighed. Since individual variations in the weight of normal muscles in animals of the same age can reach 20%, the results were standardized by calculating the ratio of the treated muscle to its contralateral intact control.
This ratio was considered to be 100% for the muscles treated by PBS alone. The degree of regeneration of muscles treated by the different substances was calculated in % of the muscle injected by PBS.

leukocytic elastase [3] = conditions: cited from earlier work
EDL muscles [4] = system: EDL muscles
Procedure: The experiment was conducted on seven Wistar rats aged two and a half months and weighing three hundred grams.
After annesthesia by ether, the EDL muscles (muscles of hind rat paws) were removed from the forefoot and mechanically damaged by applying a constant pressure on the entire length of the muscle, using a Pean forceps. The pressure was maintained for fifteen seconds, the forceps being closed at the second notch. The homogeneity of the lesion on the whole of the muscle was controlled by following its infarction for 30 seconds. The muscle was then put back in position and the skin sutured by linen thread.
The regeneration controls were injected with the same quantity of PBS alone. Depending on the experiments, injection took place before or after the lesion of the muscle. The 200 μl were injected in one minute and the product's diffusion was ensured by leaving the muscle for two minutes before putting it back in the forefoot.
The treated muscles and the controls were collected after 8 days of regeneration and then immediately frozen at -150° C. in isopentane. Frozen transverse sections of 10 μm thickness were made in the median region of the muscle. The dried sections were colored by Gomori trichrome.
The morphometric analysis of the number of fibers and of their diameter was performed on micrographic montages corresponding to a transverse half-section of muscle.

[5] = beta TGF 50 ng + polymer 5000 μg + trypsin 500 μg
[6] = beta TGF 50 ng + polymer 5000 μg, no trypsin
[7] = 10 μg/ml mesoglycan or 20 μg/ml heparin, CCL39 cells
[8] = single injection of 200 μl of 50 μ/ml, after 8 days of regeneration

Molecule: FGF 1: FGF 1 recombinant form growth factor
ED50 of FGF 1 (FGF 1; FGF 1 alone, CCL39 cells): 5 ng/mL

Molecule: carboxymethyl dextran benzylamide sulfonate [CMDBS]
anticoagulant activity (coagulation): 4 IU/mg
anticomplement activity, CH50 (complement system): 1.1 µg
inhibiting power on the activity of trypsin (in words) (trypsin): no inhibiting power
trypsin activity (trypsin; Trypsin 10 ug/ml + S87 + 5 ug/ml CMDBS): 100
trypsin activity (trypsin; Trypsin 10 ug/ml + S87 + 50 ug/ml CMDBS): 100
trypsin activity (trypsin; Trypsin 10 ug/ml + S87 + 500 ug/ml CMDBS): 100

Molecule: FGF 2: FGF 2 recombinant form growth factor
ED50 of FGF 2 (FGF 2; FGF 2 alone, CCL39 cells): 3 ng/mL

Protection of the beta TGF (beta TGF biological activity) (beta TGF; [5]): 0%
Protection of the beta TGF (beta TGF biological activity) (beta TGF; [6]): 100%
Molecule: dextran

biological activity of the beta TGF still present (beta TGF; after 10 min of incubation at 37° C. with trypsin): less than 20%
% inhibiting activity of the incorporation of tritiated thymidine in CCL64 cells (beta TGF; [5]): 10%
% inhibiting activity of the incorporation of tritiated thymidine in CCL64 cells (beta TGF; [6]): 100%
% inhibiting activity of the incorporation of tritiated thymidine in CCL64 cells (beta TGF; polymer 5000 μg alone, no beta TGF, no trypsin): 0%
Leukocytic elastase IC50 (leukocytic elastase [1]): 1800 ng/mL
Molecule: heparin
protection of the beta TGF against proteolysis induced by trypsin (in words) (beta TGF): neither sucrase, nor heparin nor dextran sulfate protect the beta TGF
ED50 of FGF 1 in the presence of the polymer (FGF 1; [7]): 0.4 ng/mL
potentialization of the biological activity of FGF1 (in words) (FGF 1; 20 μg of heparin, 10 μg of mesoglycan or 10 μg of sulodexide, FIG. 2A): potentialization of the biological activity
ED50 of FGF 2 in the presence of the polymer (FGF 2; [7]): 0.2 ng/mL
potentialization of the biological activity of FGF2 (in words) (FGF 2; 20 μg of heparin, 10 μg of mesoglycan or 10 μg of sulodexide, FIG. 2B): potentialization of the biological activity
protective effect against thermal degradation of FGF1 (in words) (FGF1): protective effect
protective effect against thermal degradation of FGF2 (in words) (FGF2): protective effect
protective effect against proteolytic degradation of 125I-FGF1 (in words) (125I-FGF1): protective effect
protective effect against proteolytic degradation of 125I-FGF2 (in words) (125I-FGF2): protective effect
PROTECTION (in %) of the FGF (FGF): 100%
Ratio regenerated/ contralateral intact (muscle weight) (EDL muscles [2]): 0.590
% ratio treated/ ratio degenerated (EDL muscles [2]): 86%
muscular repair and regeneration (in words) (EDL muscles [2]; rat, in vivo): neither heparin nor dextran sulfate present properties on muscular regeneration
Ki (leukocytic elastase [3]): ~1 nM
anticoagulant activity (coagulation): 175 IU/mg

Protection of the beta TGF (beta TGF biological activity) (beta TGF; [5]): 0%
Protection of the beta TGF (beta TGF biological activity) (beta TGF; [6]): 100%
Molecule: dextran sulfate
protection of the beta TGF against proteolysis induced by trypsin (in words) (beta TGF): neither sucrase, nor heparin nor dextran sulfate protect the beta TGF
Diameter of muscles (EDL muscles [4]; [8]): 3.9 ± 0.4 mm
Mean diameter of regenerated fibers (EDL muscles [4]; [8]): 28.2 ± 4.6
Number of fibers on a half-section (EDL muscles [4]; [8]): 418
muscular regeneration after crushing, macroscopic and histological findings (in words) (EDL muscles [4]; single injection, 8 days of regeneration): no qualitative or quantitative modification of muscular regeneration; also recorded: neither heparin nor dextran sulfate present properties on muscular regeneration

Molecule: O=S(=O)(O)OC[C@H]1O[C@@](COS(=O)(=O)O)(O[C@H]2O[C@H](COS(=O)(=O)O)[C@@H](OS(=O)(=O)O)[C@H](OS(=O)(=O)O)[C@H]2OS(=O)(=O)O)[C@@H](OS(=O)(=O)O)[C@@H]1OS(=O)(=O)O [sucrase, sucrose octasulfate]
protection of the beta TGF against proteolysis induced by trypsin (in words) (beta TGF): neither sucrase, nor heparin nor dextran sulfate protect the beta TGF
Ratio regenerated/ contralateral intact (muscle weight) (EDL muscles [2]): 0.620
% ratio treated/ ratio degenerated (EDL muscles [2]): 87%

B1: STBI: trypsin inhibitor originating from soya, from Sigma (protein, UniProt P01070 25-205, looked up)
Trypsin inhibitor A: DFVLDNEGNPLENGGTYYILSDITAFGGIRAAPTGNERCPLTVVQSRNELDKGIGTIISSPYRIRFIAEGHPLSLKFDSFAVIMLCVGIPTEWSVVEDLPEGPAVKIGENKDAMDGWFRLERVSDDEFNNYKLVFCPQQAEDDKCGDIGISIDHDDGTRRLVVSKNKPLVVQFQKLDKESL
trypsin activity (trypsin; Trypsin + S87 + STBI): 0
